Test results taken from PubChem BioAssay (NCI).
Where “and” joins values, the source holds several entries; their conditions need not be identical. Equal values may be shown once.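 How tested: cells in 96-well plates exposed to compound for 48 hours at five concentrations. GI50 is the concentration that inhibits growth by half. The concentration for full growth arrest is given as TGI.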

Tests used:
Test in all cases: DTP human tumour cell line panel, 48 h
TK-10 renal = test system: TK-10 renal
SK-MEL-28 melanoma = test system: SK-MEL-28 melanoma
OVCAR-5 ovarian = test system: OVCAR-5 ovarian
HCT-116 colon = test system: HCT-116 colon
NCI-H23 lung = test system: NCI-H23 lung
MOLT-4 leukemia = test system: MOLT-4 leukemia
786-0 renal = test system: 786-0 renal
HCT-15 colon = test system: HCT-15 colon
OVCAR-3 ovarian = test system: OVCAR-3 ovarian
NCI-H460 lung = test system: NCI-H460 lung

SMILES	TGI (TK-10 renal) [µM]	TGI (SK-MEL-28 melanoma) [µM]	TGI (OVCAR-5 ovarian) [µM]	TGI (HCT-116 colon) [µM]	TGI (NCI-H23 lung) [µM]	TGI (MOLT-4 leukemia) [µM]	TGI (786-0 renal) [µM]	TGI (HCT-15 colon) [µM]	TGI (OVCAR-3 ovarian) [µM]	TGI (NCI-H460 lung) [µM]	GI50 (HCT-116 colon)	GI50 (NCI-H460 lung)	GI50 (NCI-H23 lung)	GI50 (MOLT-4 leukemia)	GI50 (HCT-15 colon) [µM]	GI50 (OVCAR-3 ovarian)	GI50 (TK-10 renal) [µM]	GI50 (SK-MEL-28 melanoma) [µM]	GI50 (OVCAR-5 ovarian) [µM]	GI50 (786-0 renal) [µM]
Clc1nc(Cl)c(Cc2ccccc2)c(Cl)n1	32.2	26.6	38.2	4.73	37.5	> 100	10.4	85	9.16											
COc1ccccc1/C=N/N=C(\N)NO		> 100	24.3	> 100	> 100	> 100	90	> 100	> 100	> 100										
COc1cc([C@@H]2OC(=O)C3C2C(=O)O[C@H]3c2cc(OC)c(OC)c(OC)c2)cc(OC)c1OC (stereo partly drawn)	> 100	> 100		> 100	> 100	> 100	> 100	> 100	> 100	> 100										
CC1SC(=O)SC1C (stereo not drawn)	> 100	> 100	> 100	> 100		> 100	> 100	> 100		> 100										
COC(=O)[C@@H](C)C[C@H](Cc1ccccc1)NC(=O)c1csc([C@@H](C[C@H](C(C)C)N(C)C(=O)C2(NC(=O)[C@H]3CCCCN3C)CC2)OC(C)=O)n1			> 33.3	> 33.3	> 33.3	> 33.3	> 33.3			> 33.3	3.43 nM and 3.33 nM	11.1 nM and 3.33 nM	17.2 nM and 3.33 nM	9.65 nM and 3.33 nM	0.424	0.000567 µM and 0.00333 µM				
OCCNCCNc1c2ccccc2nc2oc3ccccc3c12	86.8	26.5	71.6	16.2		> 100	22.2	53.1	42.8	17.5	4610 nM	4440 nM		4780 nM	7.57	12.5 µM	22.4	12.1	24.2	7.44
O=C1C[C@H]2CC3(CC[C@H]2CN1)OCCO3	> 100	> 100		> 100	> 100	> 100	> 100	> 100	> 100	> 100										
COc1cc(C(=O)CC2(O)C(=O)Nc3c(Cl)cc(Cl)cc32)ccc1O (stereo not drawn)	> 100	> 100	> 100		> 100	> 100	> 100	> 100	> 100	> 100										
CSC1C(=O)c2ccccc2/C(=N/Nc2nc3ccccc3s2)C1C (stereo not drawn)	42		29.6	28.8	28.3		19.7	15.8	17.6	25.7	4670 nM	11000 nM	11200 nM		7.58	7.98 µM	15.6		14.5	10.1
Cn1c(=O)c(C(=O)NC(=O)OCc2ccccc2)cn(CCSCCOC(=O)NCCCCCCNC(=O)OCCSCCn2cc(C(=O)NC(=O)OCc3ccccc3)c(=O)n(C)c2=O)c1=O	> 100	> 100	> 100	> 100	> 100	> 100	> 100	> 100		> 100										
